Data on seven compounds can be found in patent publication US6696431B2, “26,27-homologated-20-EPI-2-alkylidene-19-nor-vitamin D compounds” (Wisconsin Alumni Research Foundation, priority 1997, dated 2004).

For test [1], the target named is T1, porcine intestinal vitamin D receptor (Sus scrofa, UniProt A3RGC1).
T1 construct: from tissue; host or cells: porcine intestine
T1 sequence (A3RGC1 1-427): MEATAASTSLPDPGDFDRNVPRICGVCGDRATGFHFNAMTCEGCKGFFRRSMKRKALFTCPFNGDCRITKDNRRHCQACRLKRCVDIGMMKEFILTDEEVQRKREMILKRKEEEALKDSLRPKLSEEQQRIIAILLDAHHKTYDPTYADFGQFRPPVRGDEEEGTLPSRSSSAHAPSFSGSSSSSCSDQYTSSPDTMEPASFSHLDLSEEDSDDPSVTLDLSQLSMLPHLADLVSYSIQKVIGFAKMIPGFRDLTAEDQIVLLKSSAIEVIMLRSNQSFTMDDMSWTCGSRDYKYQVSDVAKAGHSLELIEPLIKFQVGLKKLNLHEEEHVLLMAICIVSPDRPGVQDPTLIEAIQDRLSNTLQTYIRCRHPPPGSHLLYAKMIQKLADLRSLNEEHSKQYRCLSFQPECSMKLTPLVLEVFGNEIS
As to the kind of experiment: Competitive binding to the porcine intestinal vitamin D receptor. The settings on record: for EC50: concentration for 50% displacement of radiolabeled 1α,25-(OH)2D3, read-out: VDR Binding ED50; for VDR Binding ratio: ratio of analog ED50 to ED50 for 1α,25-(OH)2D3.

Test [2] concerns HL-60 cells. As to the kind of experiment: Differentiation of HL-60 promyelocytes to monocytes (NBT reduction). Format: cell-based. As to conditions: for HL-60 Differentiation ED50: concentration inducing 50% maturation, NBT reduction; for HL-60 Differentiation Activity ratio: ratio of analog ED50 to ED50 for 1α,25-(OH)2D3; for induction of differentiation of HL-60 cells to the monocyte, in words: FIG. 2.

Test [3] deals with Vitamin D-Deficient Rats on a Low-Calcium Diet. As to the kind of experiment: Intestinal calcium transport in vitamin D-deficient rats on a low-calcium diet (Tables 4, 6). The test is classed as in vivo, rat.
Test [4] has the same test system. Briefly: Bone calcium mobilization (serum Ca) in vitamin D-deficient rats on a low-calcium diet (Tables 4, 6). Format: in vivo, rat.
Test [5] deals with vitamin D-deficient rats. As to the kind of experiment: Intestinal calcium transport (everted sac), chronic doses for 7 days (Table 1). The test is classed as in vivo, rat. The settings on record: for Intestinal Calcium Transport (S/M): intraperitoneal, 24 h after last dose, mean±SEM; for intestinal calcium transport, in words: chronic 7 days, 130 or 260 pmol/day, 1,25-(OH)2D3 at 260 pmol/day only. As for the experimental part: (§1) Male weanling rats were obtained from Sprague Dawley Co. (Indianapolis, Ind.) and fed a 0.47% calcium, 0.3% phosphorus vitamin D-deficient diet for 1 week and then given the same diet containing 0.02% calcium, 0.3% phosphorus for 2 weeks. During the last week they were given the indicated dose of compound by intraperitoneal injection in 0.1 ml 95% propylene glycol and 5% ethanol each day for 7 days. The control animals received only the 0.1 ml of 95% propylene glycol, 5% ethanol. Twenty-four hours after the last dose, the rats were sacrificed and intestinal calcium transport was determined by everted sac technique as previously described and serum calcium determined by atomic absorption spectrometry on a model 3110 Perkin Elmer instrument (Norwalk, Conn.). There were 5 rats per group and the values represent mean±SEM.

Test [6] deals with vitamin D-deficient rats. Briefly: Serum calcium (bone calcium mobilization), chronic doses for 7 days (Table 1). Format: in vivo, rat. As to conditions: for Serum Calcium: intraperitoneal, 24 h after last dose, mean±SEM; for bone calcium mobilization, in words: 130 and 260 pmol/day. As for the experimental part: as §1
For test [7], the system named is vitamin D-deficient rats. Briefly: Intestinal calcium transport after a single dose (Table 2). Format: in vivo, rat. The settings on record: single intrajugular dose 650 pmol, 24 h later, mean±SEM. The protocol:
(§2) Male Holtzman strain weanling rats were obtained from the Sprague Dawley Co. (Indianapolis, Ind.) and fed the 0.47% calcium, 0.3% phosphorus diet described by Suda et al. (J. Nutr. 100, 1049-1052, 1970) for 1 week and then fed the same diet containing 0.02% calcium and 0.3% phosphorus for 2 additional weeks. At this point, they received a single intrajugular injection of the indicated dose dissolved in 0.1 ml of 95% propylene glycol/5% ethanol. Twenty-four hours later they were sacrificed and intestinal calcium transport and serum calcium were determined as described in Table 1. The dose of the compounds was 650 pmol and there were 5 animals per group. The data are expressed as mean±SEM.

Test [8] deals with vitamin D-deficient rats. Briefly: Serum calcium (bone calcium mobilization) after a single dose (Table 2). Format: in vivo, rat. As to conditions: single intrajugular dose 650 pmol, 24 h later, mean±SEM. As for the experimental part: as §2
[9] abbreviates: 65 pmol daily for 7 days i.p., Table 6 panel 2.
Setting [10] is: 260 pmol daily for 7 days i.p., Table 6 panel 2.
Where [11] appears, read: 15 pmol daily for 7 days i.p., Table 4 and Table 6 panel 1.
The mark [12] stands for this setting: 32 pmol daily for 7 days i.p., Table 4 and Table 6 panel 1.
Where [13] appears, read: 260 pmol daily for 7 days i.p., Table 4 and Table 6 panel 1.

Marks after values point to notes of the source that are not given here.

As to `C=C1[C@H](O)CC(=C/C=C2\CCC[C@@]3(C)C2CCC3[C@@H](C)CCCC2(OC)CCCC2)C[C@H]1O` (stereo partly drawn) [Compound 46, 20(S)-26,27-dimethylene-1α-hydroxy-25-methoxy-2-methylene-19-norvitamin D3], the EC50 in test [1] turned out to be 15 nM. The “VDR Binding ratio” value in test [1] worked out at 17. Moreover, in test [2], the “HL-60 Differentiation ED50” value stood at 4.3 nM. Besides, the “HL-60 Differentiation Activity ratio” value in test [2] is 1.1. Besides, the “Ca Transport S/M (mean ± SEM)” value in test [3] (setting [9]) is reported as 5.5 ± 0.8^e^^1 S/M; in test [3] (setting [10]), 4.3 ± 0.5^e^^2 S/M. In addition, the “Serum Ca (mean ± SEM)” value is listed as 5.7 ± 0.1^e^^1 in test [4] (setting [9]) and 10.8 ± 0.3^e^^2 in test [4] (setting [10]).

With `C=C1[C@H](O)CC(=C/C=C2\CCC[C@@]3(C)C2CCC3[C@@H](C)CCCC2(O)CCCC2)C[C@H]1O` (stereo partly drawn) [Compound 47, 20(S)-1α,25-dihydroxy-26,27-dimethylene-2-methylene-19-norvitamin D3], in test [1], the EC50 was determined as 2.7 nM and the “VDR Binding ratio” value stood at 3.1. In test [2], the “HL-60 Differentiation ED50” value is 0.036 nM and the “HL-60 Differentiation Activity ratio” value was found to be 0.01. Besides, the “Ca Transport S/M (mean ± SEM)” value in test [3] (setting [11]) is on record as 5.6 ± 0.6^d^^1 S/M. Moreover, the “Ca Transport S/M (mean ± SEM)” value in test [3] (setting [12]) was 5.3 ± 0.5^d^^2 S/M. For the same compound, the “Serum Ca (mean ± SEM)” value in test [4] (setting [11]) is 5.4 ± 0.2^d^^1. For the same compound, in test [4] (setting [12]), the “Serum Ca (mean ± SEM)” value was 6.4 ± 0.2^d^^2.

`C=C1/C(=C\C=C2/CCC[C@]3(C)[C@@H]([C@H](C)CCCC(C)(C)O)CC[C@@H]23)C[C@@H](O)C[C@@H]1O` [1,25-(OH)2D3, 1α,25-dihydroxyvitamin D3, reference compound]: the “HL-60 Differentiation ED50” value in test [2] (listed as 1α,25-(OH)2D3) worked out at 4 nM. The entries for the “Intestinal Calcium Transport (S/M)” value in test [5] (260 pmol/day for 7 days) and in test [7] were 6.2 ± 0.4 S/M and 5.8 ± 0.3 S/M, respectively. Also, the “intestinal calcium transport, in words” value in test [5] was “expected elevation”. Moreover, the results for the “Serum Calcium” value in test [6] (130 pmol/day for 7 days), in test [6] (260 pmol/day for 7 days) and in test [8] were 13.8 mg/100 ml, 7.2 ± 0.5 mg/100 ml and 5.7 ± 0.2 mg/100 ml, respectively. Moreover, the “Ca Transport S/M (mean ± SEM)” value in test [3] (setting [13]) is on record as 7.2 ± 0.6^c S/M; in test [3] (setting [10]) it was 5.0 ± 0.4^c S/M. For the same compound, the results for the “Serum Ca (mean ± SEM)” value in test [4] (setting [13]) and in test [4] (setting [10]) were 5.6 ± 0.2^c and 6.3 ± 0.2^c, respectively.

Take `C=C1[C@H](O)CC(=C/C=C2\CCC[C@]3(C)[C@@H]([C@H](C)CCCC(C)(C)O)CC[C@@H]23)C[C@H]1O` [2-Methylene-19-Nor-1,25-(OH)2D3, 1α,25-dihydroxy-2-methylene-19-nor-vitamin D3]: in test [2], the “induction of differentiation of HL-60 cells to the monocyte, in words” value was “activity similar to 1,25-(OH)2D3”. Besides, the “Intestinal Calcium Transport (S/M)” value in test [5] (130 pmol/day for 7 days) amounted to 5.3 ± 0.4 S/M; in test [5] (260 pmol/day for 7 days), 4.9 ± 0.6 S/M; in test [7] it was 5.3 ± 0.5 S/M. The “intestinal calcium transport, in words” value in test [5] is “no intestinal calcium transport activity”. In addition, the results for the “Serum Calcium” value in test [6] (130 pmol/day for 7 days), in test [6] (260 pmol/day for 7 days) and in test [8] were 9.9 ± 0.2 mg/100 ml, 9.6 ± 0.3 mg/100 ml and 6.4 ± 0.1 mg/100 ml, respectively. Also, the “bone calcium mobilization, in words” value in test [6] (chronic 7 days) is “extremely strong bone calcium mobilization”. The “bone calcium mobilization activity relative to 1,25-(OH)2D3 (native hormone)” value in test [6] (chronic 7 days, for the 20(S) compound at 130 pmol/day) is recorded as 10-100 times.

Consider `C=C1[C@H](O)CC(=C/C=C2\CCC[C@@]3(C)C2CCC3[C@@H](C)CCC=C2CCCC2)C[C@H]1O` (stereo partly drawn) [Compound 45, 20(S)-26,27-dimethylene-1α-hydroxy-2-methylene-24-dehydro-19-norvitamin D3], for which, in test [1], the EC50 was found to be 29 nM. In addition, in test [1], the “VDR Binding ratio” value amounted to 33. For the same compound, in test [2], the “HL-60 Differentiation ED50” value came out at 4.1 nM. Also, the “HL-60 Differentiation Activity ratio” value in test [2] was determined as 1.0. For the same compound, the “Ca Transport S/M (mean ± SEM)” value in test [3] (setting [9]) is reported as 5.5 ± 0.8^d^^1 S/M; in test [3] (setting [10]) it was 4.3 ± 0.5^d^^2 S/M. Further, the “Serum Ca (mean ± SEM)” value in test [4] (setting [9]) is on record as 5.7 ± 0.1^d^^1; in test [4] (setting [10]), 10.8 ± 0.3^d^^2.

On to `C=C1[C@H](O)CC(=C/C=C2\CCC[C@@]3(C)C2CCC3[C@@H](C)CCCC(O)(CC)CC)C[C@H]1O` (stereo partly drawn) [Compound 35, 20(S)-1α,25-Dihydroxy-2-methylene-26,27-dihomo-19-norvitamin D3], for which the EC50 in test [1] is 4.3 nM. Further, in test [1], the “VDR Binding ratio” value is reported as 4.9. Besides, in test [2], the “HL-60 Differentiation Activity ratio” value amounted to 0.01. In addition, the “Ca Transport S/M (mean ± SEM)” value in test [3] (setting [11]) is 4.0 ± 0.4^d^^1 S/M; in test [3] (setting [12]), 8.2 ± 0.6^d^^2 S/M. The “Serum Ca (mean ± SEM)” value in test [4] (setting [11]) is on record as 5.3 ± 0.1^d^^1; in test [4] (setting [12]), 7.3 ± 0.4^d^^2.

As for `C=C1[C@H](O)CC(=C/C=C2\CCC[C@]3(C)[C@@H]([C@@H](C)CCCC(C)(C)O)CC[C@@H]23)C[C@H]1O` [2-Methylene-19-Nor-20(S)-1,25-(OH)2D3, 20(S)-1α,25-dihydroxy-2-methylene-19-nor-vitamin D3], the “induction of differentiation of HL-60 cells to the monocyte, in words” value in test [2] was “extremely potent”. Further, the “Intestinal Calcium Transport (S/M)” value in test [5] (130 pmol/day for 7 days) was determined as 5.7 ± 0.8 S/M; in test [5] (260 pmol/day for 7 days), 4.6 ± 0.7 S/M; in test [7] it was 5.5 ± 0.6 S/M. Moreover, in test [5], the “intestinal calcium transport, in words” value was “no significant change”. The “Serum Calcium” value in test [6] (130 pmol/day for 7 days) is 13.8 ± 0.5 mg/100 ml; in test [6] (260 pmol/day for 7 days) it was 14.4 ± 0.6 mg/100 ml; in test [6] (260 pmol/day for 7 days, listed as 2-methylene-19-nor-20(S)-1,25-(OH)2D3), 14 mg/100 ml; in test [8], 8.0 ± 0.1 mg/100 ml. Further, the “bone calcium mobilization, in words” value in test [6] (chronic 7 days) is recorded as “most potent compound tested”.
